TGI data for ten compounds are collected here from PubChem BioAssay (NCI).

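These data come from cells grown in 96-well plates and exposed to compound for 48 hours at five concentrations. TGI: total growth inhibition.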

Test systems include MCF7 breast; A549 NSCLC; SNB-19 CNS; SR leukemia; HCC-2998 colon; NCI/ADR-RES ovarian; OVCAR-3 ovarian; KM12 colon; HOP-62 NSCLC; SF-295 CNS; COLO 205 colon; SK-MEL-5 melanoma; HT29 colon; U251 CNS; HL-60(TB) leukemia; RPMI-8226 leukemia; HOP-92 NSCLC.
What all share (experiment): growth of human tumour cells (NCI), 48 h

Turning to `O=C1C(=Nc2ccccc2)Oc2cc(O)ccc21`, the TGI with MCF7 breast, in the experiment with A549 NSCLC, with SNB-19 CNS, with SR leukemia, in the experiment with HCC-2998 colon and in the experiment with NCI/ADR-RES ovarian was more than 100 µM each time. Besides, the TGI in the experiment on OVCAR-3 ovarian, with KM12 colon, with HOP-62 NSCLC, in the experiment with SF-295 CNS, with COLO 205 colon and in the experiment with SK-MEL-5 melanoma was more than 100 µM each time. The TGI in the experiment on HT29 colon and in the experiment with U251 CNS was more than 100 µM throughout.
Consider `NC(CCCCNC(=O)CNC(=O)OCc1ccccc1)C(=O)NC(CCCCNC(=O)CNC(=O)OCc1ccccc1)C(=O)NC(CCCCNC(=O)CNC(=O)OCc1ccccc1)C(=O)NC(CCCCNC(=O)CNC(=O)OCc1ccccc1)C(=O)NC(CCCCNC(=O)CNC(=O)OCc1ccccc1)C(=O)NC(CCCCNC(=O)CNC(=O)OCc1ccccc1)C(=O)O` (stereo not given), for which the TGI with MCF7 breast, with A549 NSCLC, in the experiment with SNB-19 CNS, in the experiment with SR leukemia, in the experiment with HCC-2998 colon and in the experiment on HL-60(TB) leukemia was more than 75 µM throughout. In addition, the TGI in the experiment on OVCAR-3 ovarian, in the experiment with HOP-62 NSCLC, with SK-MEL-5 melanoma, in the experiment on RPMI-8226 leukemia, with HT29 colon and with U251 CNS was more than 75 µM each time.
On to `O=C1CCCCC/C1=C\c1ccc(Cl)cc1`, for which the TGI is more than 100 µM with A549 NSCLC; more than 100 µM in the experiment on SNB-19 CNS; more than 100 µM in the experiment with SR leukemia; 96.2 µM in the experiment on HCC-2998 colon; more than 100 µM in the experiment on OVCAR-3 ovarian; 51.4 µM with KM12 colon. For the same compound, the TGI with HOP-62 NSCLC is more than 100 µM; in the experiment on SF-295 CNS, 56.6 µM; in the experiment on COLO 205 colon, 40.8 µM; in the experiment with SK-MEL-5 melanoma, 35.2 µM; with RPMI-8226 leukemia, 82.2 µM; with HT29 colon, 54.5 µM. Further, the values for the TGI in the experiment with HOP-92 NSCLC and in the experiment with U251 CNS were 98 µM and more than 100 µM, respectively.
In the case of `COC(=O)C1=C(C)NC(C)=C(C(=O)OC)C1c1cccc(NO)c1`, the TGI was 38.5 µM in the experiment on MCF7 breast; more than 100 µM with A549 NSCLC; more than 100 µM with SNB-19 CNS; more than 100 µM in the experiment on SR leukemia; more than 100 µM in the experiment with HCC-2998 colon; 42.3 µM in the experiment with NCI/ADR-RES ovarian. Further, the TGI is 29.5 µM in the experiment on OVCAR-3 ovarian; 29.4 µM in the experiment with KM12 colon; more than 100 µM with HOP-62 NSCLC; 83.1 µM in the experiment on SF-295 CNS; 30.3 µM in the experiment with COLO 205 colon; 29.4 µM in the experiment with SK-MEL-5 melanoma. The TGI in the experiment with RPMI-8226 leukemia was more than 100 µM; with HT29 colon, 32.4 µM; in the experiment with HOP-92 NSCLC, 23.8 µM; in the experiment on U251 CNS it was 29.8 µM.
For the compound `CCOC(=O)Nc1nn(C)c(=NCc2ccccc2)s1`, the TGI in the experiment on MCF7 breast, in the experiment with A549 NSCLC, in the experiment on SNB-19 CNS, in the experiment with SR leukemia, with HL-60(TB) leukemia and in the experiment with OVCAR-3 ovarian was more than 100 µM each time. The TGI with KM12 colon, with HOP-62 NSCLC, with SF-295 CNS, with COLO 205 colon, in the experiment on SK-MEL-5 melanoma and in the experiment with RPMI-8226 leukemia was more than 100 µM in each case. Further, the TGI with HOP-92 NSCLC and with U251 CNS was more than 100 µM in each case.
For `CC12c3c4cc(Br)cc3Oc3cc(Br)cc(c31)Oc1cc(Br)cc(c12)O4`, the TGI with MCF7 breast was more than 100 µM; with A549 NSCLC, more than 100 µM; in the experiment with SNB-19 CNS, more than 100 µM; with SR leukemia, more than 100 µM; in the experiment with HCC-2998 colon, more than 100 µM; with NCI/ADR-RES ovarian it was 58.5 µM. In addition, the TGI in the experiment with OVCAR-3 ovarian was 28.2 µM; in the experiment on KM12 colon, more than 100 µM; in the experiment on HOP-62 NSCLC, more than 100 µM; in the experiment on SF-295 CNS, more than 100 µM; in the experiment with COLO 205 colon, more than 100 µM; in the experiment with SK-MEL-5 melanoma, 84.5 µM. Besides, the TGI in the experiment with RPMI-8226 leukemia, in the experiment with HT29 colon and in the experiment on U251 CNS was more than 100 µM in each case.
As for `NC(CCC(=O)O)(CCC(=O)O)CCC(=O)O`, the TGI in the experiment with MCF7 breast, with A549 NSCLC, in the experiment with SNB-19 CNS, in the experiment on SR leukemia, in the experiment on NCI/ADR-RES ovarian and in the experiment with KM12 colon was more than 100 µM in each case. Further, the TGI with SF-295 CNS, with COLO 205 colon, in the experiment on SK-MEL-5 melanoma, in the experiment on RPMI-8226 leukemia, with HT29 colon and in the experiment with HOP-92 NSCLC was more than 100 µM in each case. In addition, in the experiment with U251 CNS, the TGI is more than 100 µM.
With `O=c1c2cn[nH]c2nc2scc(-c3ccc(Cl)cc3)n12`, the TGI in the experiment on MCF7 breast, with A549 NSCLC, in the experiment on SNB-19 CNS, in the experiment on SR leukemia, in the experiment on HCC-2998 colon and in the experiment on NCI/ADR-RES ovarian was more than 100 µM each time. For the same compound, the TGI in the experiment on OVCAR-3 ovarian, in the experiment on KM12 colon, in the experiment on HOP-62 NSCLC, with SF-295 CNS, in the experiment on COLO 205 colon and in the experiment with SK-MEL-5 melanoma was more than 100 µM each time. The TGI in the experiment on RPMI-8226 leukemia, with HT29 colon and in the experiment on U251 CNS was more than 100 µM throughout.
Consider `O=C(CNC(=O)OCc1ccccc1)NCCCCC(NC(=O)OCc1ccccc1)C(=O)NC(CCCCNC(=O)CNC(=O)OCc1ccccc1)C(=O)OCc1ccccc1` (stereo not given), for which the TGI in the experiment on MCF7 breast, in the experiment with A549 NSCLC, with SNB-19 CNS, in the experiment on SR leukemia, with HCC-2998 colon and with HL-60(TB) leukemia was more than 62.5 µM each time. Besides, the TGI in the experiment on OVCAR-3 ovarian, in the experiment with HOP-62 NSCLC, in the experiment with SK-MEL-5 melanoma, in the experiment with RPMI-8226 leukemia, in the experiment on HT29 colon and with U251 CNS was more than 62.5 µM throughout.
For `O=C(Cc1ccccc1)NCCCN(CCCCN(CCCNC(=O)Cc1ccccc1)C(=O)OCc1ccccc1)C(=O)OCc1ccccc1`, the TGI in the experiment with MCF7 breast, in the experiment on A549 NSCLC, in the experiment with SR leukemia, with HCC-2998 colon, in the experiment with NCI/ADR-RES ovarian and in the experiment on OVCAR-3 ovarian was more than 100 µM in each case. Also, the TGI in the experiment with KM12 colon, in the experiment with HOP-62 NSCLC, in the experiment on SF-295 CNS, with COLO 205 colon, with SK-MEL-5 melanoma and in the experiment on RPMI-8226 leukemia was more than 100 µM throughout. Besides, the TGI in the experiment with HT29 colon, in the experiment on HOP-92 NSCLC and with U251 CNS was more than 100 µM throughout.
